# Data reported in paper PMC3198815 (PLoS ONE, 2011).
# Biological target: T1, xoFabV (Xanthomonas oryzae, UniProt Q2P9J6)
# T1 construct: gene fabV
# Settings: weak binding, data not shown; no electron density in co-crystals
# T1 sequence (Q2P9J6 whole entry, looked up): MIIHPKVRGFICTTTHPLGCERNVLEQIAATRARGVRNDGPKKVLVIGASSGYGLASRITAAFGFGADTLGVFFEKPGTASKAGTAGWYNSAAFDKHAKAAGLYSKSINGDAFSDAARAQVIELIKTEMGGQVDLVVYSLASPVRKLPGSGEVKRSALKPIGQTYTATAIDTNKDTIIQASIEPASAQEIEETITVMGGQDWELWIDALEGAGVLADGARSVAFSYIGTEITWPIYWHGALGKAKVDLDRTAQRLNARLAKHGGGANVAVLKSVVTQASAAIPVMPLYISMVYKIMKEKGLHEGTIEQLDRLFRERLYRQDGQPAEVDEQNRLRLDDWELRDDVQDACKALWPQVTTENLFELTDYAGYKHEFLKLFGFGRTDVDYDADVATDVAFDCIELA
structure (smiles),measurement,value
NC(=O)c1ccc[n+]([C@@H]2O[C@H](COP(=O)(O)OP(=O)(O)OC[C@H]3O[C@@H](n4cnc5c(N)ncnc54)[C@H](O)[C@@H]3O)[C@@H](O)[C@H]2O)c1 [NAD^+],isothermal titration calorimetry,NAD^+ binds weakly to xoFabV according to isothermal titration calorimetry assay (data not shown)
